# Results reported in the NIST ThermoML archive (doi:10.1021/acs.jced.5b00820).
# ± gives the expanded uncertainty stated by the source.
# Assay: xn = mol fraction of the nth substance listed
# Details: 102.2 kPa, Liquid, Vibrating tube method
compound,measurement,setting,value
"C[Si](C)(O[Si](C)(C)c1ccccc1)c1ccccc1 [1,3-diphenyltetramethyldisiloxane] + C[Si]1(C)O[Si](C)(C)O[Si](C)(C)O[Si](C)(C)O1",mass density,"308.15 K, x1 = 0.05",940.79 ± 0.22 kg/m3
same,mass density,"308.15 K, x1 = 0.0999",942.6 ± 0.22 kg/m3
same,mass density,"308.15 K, x1 = 0.1503",944.43 ± 0.22 kg/m3
same,mass density,"308.15 K, x1 = 0.2005",946.19 ± 0.22 kg/m3
same,mass density,"308.15 K, x1 = 0.2507",947.88 ± 0.22 kg/m3
same,mass density,"308.15 K, x1 = 0.2963",949.39 ± 0.21 kg/m3
same,mass density,"308.15 K, x1 = 0.3509",951.16 ± 0.21 kg/m3
same,mass density,"308.15 K, x1 = 0.4001",952.67 ± 0.21 kg/m3
same,mass density,"308.15 K, x1 = 0.4471",954.04 ± 0.21 kg/m3
same,mass density,"308.15 K, x1 = 0.4968",955.6 ± 0.21 kg/m3
same,mass density,"308.15 K, x1 = 0.5512",957.17 ± 0.21 kg/m3
same,mass density,"308.15 K, x1 = 0.6003",958.51 ± 0.21 kg/m3
same,mass density,"308.15 K, x1 = 0.6502",959.83 ± 0.21 kg/m3
same,mass density,"308.15 K, x1 = 0.7001",961.15 ± 0.21 kg/m3
same,mass density,"308.15 K, x1 = 0.7497",962.4 ± 0.21 kg/m3
same,mass density,"308.15 K, x1 = 0.8",963.64 ± 0.21 kg/m3
same,mass density,"308.15 K, x1 = 0.85",964.8 ± 0.21 kg/m3
same,mass density,"308.15 K, x1 = 0.896",965.82 ± 0.21 kg/m3
same,mass density,"308.15 K, x1 = 0.9497",967 ± 0.21 kg/m3
same,mass density,"308.15 K, x1 = 1",968.05 ± 0.21 kg/m3
same,mass density,"313.15 K, x1 = 0.05",935.08 ± 0.22 kg/m3
same,mass density,"313.15 K, x1 = 0.0999",937.01 ± 0.22 kg/m3
same,mass density,"313.15 K, x1 = 0.1503",938.95 ± 0.22 kg/m3
same,mass density,"313.15 K, x1 = 0.2005",940.8 ± 0.22 kg/m3
same,mass density,"313.15 K, x1 = 0.2507",942.59 ± 0.22 kg/m3
same,mass density,"313.15 K, x1 = 0.2963",944.19 ± 0.21 kg/m3
same,mass density,"313.15 K, x1 = 0.3509",946.05 ± 0.21 kg/m3
same,mass density,"313.15 K, x1 = 0.4001",947.66 ± 0.21 kg/m3
same,mass density,"313.15 K, x1 = 0.4471",949.1 ± 0.21 kg/m3
same,mass density,"313.15 K, x1 = 0.4968",950.74 ± 0.21 kg/m3
same,mass density,"313.15 K, x1 = 0.5512",952.39 ± 0.21 kg/m3
same,mass density,"313.15 K, x1 = 0.6003",953.82 ± 0.21 kg/m3
same,mass density,"313.15 K, x1 = 0.6502",955.22 ± 0.21 kg/m3
same,mass density,"313.15 K, x1 = 0.7001",956.6 ± 0.21 kg/m3
same,mass density,"313.15 K, x1 = 0.7497",957.92 ± 0.21 kg/m3
same,mass density,"313.15 K, x1 = 0.8",959.25 ± 0.21 kg/m3
same,mass density,"313.15 K, x1 = 0.85",960.48 ± 0.21 kg/m3
same,mass density,"313.15 K, x1 = 0.896",961.53 ± 0.21 kg/m3
same,mass density,"313.15 K, x1 = 0.9497",962.79 ± 0.21 kg/m3
same,mass density,"313.15 K, x1 = 1",963.92 ± 0.21 kg/m3
same,mass density,"318.15 K, x1 = 0.05",929.44 ± 0.22 kg/m3
same,mass density,"318.15 K, x1 = 0.0999",931.46 ± 0.22 kg/m3
same,mass density,"318.15 K, x1 = 0.1503",933.49 ± 0.22 kg/m3
same,mass density,"318.15 K, x1 = 0.2005",935.45 ± 0.22 kg/m3
same,mass density,"318.15 K, x1 = 0.2507",937.33 ± 0.22 kg/m3
same,mass density,"318.15 K, x1 = 0.2963",939.02 ± 0.22 kg/m3
same,mass density,"318.15 K, x1 = 0.3509",940.97 ± 0.21 kg/m3
same,mass density,"318.15 K, x1 = 0.4001",942.65 ± 0.21 kg/m3
same,mass density,"318.15 K, x1 = 0.4471",944.16 ± 0.21 kg/m3
same,mass density,"318.15 K, x1 = 0.4968",945.91 ± 0.21 kg/m3
same,mass density,"318.15 K, x1 = 0.5512",947.64 ± 0.21 kg/m3
same,mass density,"318.15 K, x1 = 0.6003",949.15 ± 0.21 kg/m3
same,mass density,"318.15 K, x1 = 0.6502",950.62 ± 0.21 kg/m3
same,mass density,"318.15 K, x1 = 0.7001",952.09 ± 0.21 kg/m3
same,mass density,"318.15 K, x1 = 0.7497",953.48 ± 0.21 kg/m3
same,mass density,"318.15 K, x1 = 0.8",954.87 ± 0.21 kg/m3
same,mass density,"318.15 K, x1 = 0.85",956.18 ± 0.21 kg/m3
same,mass density,"318.15 K, x1 = 0.896",957.3 ± 0.21 kg/m3
same,mass density,"318.15 K, x1 = 0.9497",958.63 ± 0.21 kg/m3
same,mass density,"318.15 K, x1 = 1",959.8 ± 0.21 kg/m3
same,mass density,"323.15 K, x1 = 0.05",923.79 ± 0.22 kg/m3
same,mass density,"323.15 K, x1 = 0.0999",925.91 ± 0.22 kg/m3
same,mass density,"323.15 K, x1 = 0.1503",928.04 ± 0.22 kg/m3
same,mass density,"323.15 K, x1 = 0.2005",930.1 ± 0.22 kg/m3
same,mass density,"323.15 K, x1 = 0.2507",932.06 ± 0.22 kg/m3
same,mass density,"323.15 K, x1 = 0.2963",933.84 ± 0.22 kg/m3
same,mass density,"323.15 K, x1 = 0.3509",935.88 ± 0.21 kg/m3
same,mass density,"323.15 K, x1 = 0.4001",937.65 ± 0.21 kg/m3
same,mass density,"323.15 K, x1 = 0.4471",939.26 ± 0.21 kg/m3
same,mass density,"323.15 K, x1 = 0.4968",941.08 ± 0.21 kg/m3
same,mass density,"323.15 K, x1 = 0.5512",942.9 ± 0.21 kg/m3
same,mass density,"323.15 K, x1 = 0.6003",944.46 ± 0.21 kg/m3
same,mass density,"323.15 K, x1 = 0.6502",946.01 ± 0.21 kg/m3
same,mass density,"323.15 K, x1 = 0.7001",947.56 ± 0.21 kg/m3
same,mass density,"323.15 K, x1 = 0.7497",949.04 ± 0.21 kg/m3
same,mass density,"323.15 K, x1 = 0.8",950.49 ± 0.21 kg/m3
same,mass density,"323.15 K, x1 = 0.85",951.88 ± 0.21 kg/m3
same,mass density,"323.15 K, x1 = 0.896",953.03 ± 0.21 kg/m3
same,mass density,"323.15 K, x1 = 0.9497",954.45 ± 0.21 kg/m3
same,mass density,"323.15 K, x1 = 1",955.69 ± 0.21 kg/m3
same,mass density,"328.15 K, x1 = 0.05",918.1 ± 0.22 kg/m3
same,mass density,"328.15 K, x1 = 0.0999",920.32 ± 0.22 kg/m3
same,mass density,"328.15 K, x1 = 0.1503",922.57 ± 0.22 kg/m3
same,mass density,"328.15 K, x1 = 0.2005",924.72 ± 0.22 kg/m3
same,mass density,"328.15 K, x1 = 0.2507",926.77 ± 0.22 kg/m3
same,mass density,"328.15 K, x1 = 0.2963",928.63 ± 0.22 kg/m3
same,mass density,"328.15 K, x1 = 0.3509",930.78 ± 0.22 kg/m3
same,mass density,"328.15 K, x1 = 0.4001",932.62 ± 0.21 kg/m3
same,mass density,"328.15 K, x1 = 0.4471",934.29 ± 0.21 kg/m3
same,mass density,"328.15 K, x1 = 0.4968",936.23 ± 0.21 kg/m3
same,mass density,"328.15 K, x1 = 0.5512",938.15 ± 0.21 kg/m3
same,mass density,"328.15 K, x1 = 0.6003",939.79 ± 0.21 kg/m3
same,mass density,"328.15 K, x1 = 0.6502",941.41 ± 0.21 kg/m3
same,mass density,"328.15 K, x1 = 0.7001",943.03 ± 0.21 kg/m3
same,mass density,"328.15 K, x1 = 0.7497",944.59 ± 0.21 kg/m3
same,mass density,"328.15 K, x1 = 0.8",946.11 ± 0.21 kg/m3
same,mass density,"328.15 K, x1 = 0.85",947.58 ± 0.21 kg/m3
same,mass density,"328.15 K, x1 = 0.896",948.8 ± 0.21 kg/m3
same,mass density,"328.15 K, x1 = 0.9497",950.29 ± 0.21 kg/m3
same,mass density,"328.15 K, x1 = 1",951.58 ± 0.21 kg/m3
